This is an account of results in PubChem BioAssay AID1159558 (GlaxoSmithKline (GSK), 2015).

The source made the active and inactive calls.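 The calls were made as follows: active = IC50 against T. cruzi CYP51 below a set limit; inactive = the rest.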

The target in the experiment is Sterol 14-alpha demethylase (Trypanosoma cruzi (strain CL Brener)) (UniProt Q7Z1V1). Kind of experiment: T. cruzi sterol 14-alpha demethylase inhibition – biochemical, recombinant enzyme, mechanism study for T. cruzi antiparasitic project, dose response (AID 1159558).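 Also: enzyme in bacterial membranes with Anopheles gambiae CYP reductase and cytochrome b5 partners.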 To be noted: recombinant T. cruzi CYP51, BOMCC fluorescence.
Sterol 14-alpha demethylase (Trypanosoma cruzi (strain CL Brener)), sequence (Q7Z1V1 whole entry, looked up): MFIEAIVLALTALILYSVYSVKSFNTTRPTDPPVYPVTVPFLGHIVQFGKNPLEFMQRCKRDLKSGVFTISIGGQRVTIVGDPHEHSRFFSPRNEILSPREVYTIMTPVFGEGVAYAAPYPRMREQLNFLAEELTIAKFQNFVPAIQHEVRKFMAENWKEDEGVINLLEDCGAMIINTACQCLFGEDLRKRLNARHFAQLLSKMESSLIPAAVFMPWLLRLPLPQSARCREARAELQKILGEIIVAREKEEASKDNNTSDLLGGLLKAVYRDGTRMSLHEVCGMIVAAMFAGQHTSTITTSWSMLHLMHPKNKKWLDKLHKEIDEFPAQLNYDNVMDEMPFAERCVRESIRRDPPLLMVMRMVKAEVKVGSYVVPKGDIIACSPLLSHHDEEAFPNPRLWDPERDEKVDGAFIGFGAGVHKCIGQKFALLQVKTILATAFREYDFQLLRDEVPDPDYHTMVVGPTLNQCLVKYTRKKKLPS
With `CC(C)Oc1cccc(N2CCC(C(=O)N3CCCN(C(C)C)CC3)CC2)c1`, the IC50 was > 100 µM (inactive).

For the compound `Cc1[nH]n2c(=O)c3c(nc2c1-c1ccc(Cl)cc1)CCCC3`, the IC50 is > 100 µM (inactive).

For the compound `Cc1cc(Nc2cc(C3CC3)[nH]n2)nc(N2CCC[C@H]2C(N)=O)n1`, the IC50 is > 100 µM (inactive).

`O=C(Cn1cnc([N+](=O)[O-])n1)Nc1ccc(Cl)cc1C(=O)c1ccccc1`: the IC50 was 10 µM.

With `CN(Cc1nnnn1C1CCN(Cc2ccc(-n3ccnc3)cc2)CC1)c1ccc(F)cc1F`, the IC50 is 0.13 µM.

For `Nc1nc(-c2ccccn2)nc(-n2nc(-c3ccccc3)cc2N)n1`, the IC50 is > 100 µM (inactive).

Regarding `COc1ccnc2[nH]cc(-c3cc(C(=O)N[C@H](CO)c4ccccc4)co3)c12`, the IC50 is 0.79 µM.

`COc1ccc([N+](=O)[O-])cc1NC(=O)Nc1cccc(Cl)c1`: the IC50 is > 100 µM (inactive).

Regarding `Oc1c(-c2n[nH]c(Cc3ccc(Cl)cc3)n2)ncc2cccnc12`, the IC50 is 32 µM.

In the case of `CCCCN(C(=O)c1ccc(NC(=O)C(C)C)cc1)c1ccccc1`, the IC50 was 13 µM.

For the compound `CCOc1ccc(CN(C)Cc2nc(N)nc(Nc3ccc(C)cc3)n2)cc1`, the IC50 is 16 µM.

For `CCn1nccc1CN(C)C(=O)C=Cc1ccc(Cl)cc1`, the IC50 is 0.32 µM.

Turning to `O=C(CN1CCN(S(=O)(=O)c2cccc([N+](=O)[O-])c2)CC1)Nc1ccc(Oc2ccccc2)cc1`, the 50% inhibitory concentration (IC50) was 2.5 µM.

Consider `Cc1cc2cncn2c(C2CCCCN2C(=O)c2cccs2)n1` (configuration not stated), for which the IC50 is 0.1 µM.

Consider `Cc1nn(-c2nc(N)nc(-c3ccccn3)n2)c(C)c1Cc1ccccc1`, for which the IC50 was 63 µM.

Regarding `O=C(NCc1nnc2n1CCCCC2)c1ccc(-c2ccc(F)cc2)o1`, the IC50 was 79 µM.

Take `c1ccc2[nH]c(-c3ccc(N4CCCC4)nc3)nc2c1`: the IC50 is > 100 µM (inactive).

For `COc1ccc(-c2cnc(NC(=O)c3ccc(F)cc3)n2C)cc1`, the IC50 is 10 µM.

Turning to `O=C(Nc1ncc([N+](=O)[O-])s1)C1CC1`, the IC50 is > 100 µM (inactive).

For `Cc1ncsc1CNc1cnc(-c2ccc3c(c2)OCCO3)c(-c2cnn(C)c2)c1`, the IC50 is 7.9 µM.

Turning to `COc1ccc(CN2CCCCC2c2nc(-c3cccnc3)no2)cc1` (configuration not stated), the concentration for half-maximal inhibition (IC50) was 0.2 µM.

As to `CCc1ccc2nc(NC(=O)c3cc(N4CCOCC4)ccn3)sc2c1`, the IC50 is > 100 µM (inactive).

As to `COc1ccc(-c2csc(NC(=O)c3ccc([N+](=O)[O-])s3)n2)cc1OC`, the IC50 is > 100 µM (inactive).

In the case of `C=CC[C@@H]1CC=C[C@@H](C)N1C(=O)CCc1nnc(-c2ccc3c(c2)OCO3)o1`, the IC50 is 40 µM.

Regarding `CC(C)c1cc(C(=O)N2CCCC(c3cc4ncccc4[nH]3)C2)on1` (configuration not stated), the IC50 is 50 µM.

Turning to `c1ccc2c(CCOc3nccnc3-c3ccncc3)c[nH]c2c1`, the IC50 was 0.063 µM.

Take `Cc1nccn1C1CCCN(C(=O)c2cc3c(F)cccc3s2)C1` (configuration not stated): the IC50 was 50 µM.

Turning to `O=C(Nc1cccc(S(=O)(=O)Nc2ccc(Br)cc2)c1)c1ccc([N+](=O)[O-])s1`, the concentration for half-maximal inhibition (IC50) is 2.5 µM.

In the case of `COc1ccc(C(C)(C)C)cc1S(=O)(=O)n1ccnc1`, the IC50 was 0.0079 µM.

`Cc1cc2cc(CNc3ccc4c(c3)OCO4)c(=O)n(CCO)c2cc1C`: the IC50 is 10 µM.

In the case of `Cc1cc(NC(=O)c2ccc([N+](=O)[O-])s2)ccc1Br`, the IC50 was 10 µM.

With `Cc1ccc2ccc(C(Nc3ccccn3)c3cccnc3)c(O)c2n1` (configuration not stated), the IC50 is 0.05 µM.

As to `Cn1nccc1NC(=O)Cn1ccc(-c2ccncc2)n1`, the IC50 was 6.3 µM.

`CNC(=O)C1Cc2ccccc2N1C(=O)Cc1ccc(F)cc1` (configuration not stated): the IC50 is > 100 µM (inactive).

Regarding `CNC(=O)C1Cc2ccccc2N1C(=O)Cc1ccc(OC)cc1` (configuration not stated), the IC50 is > 100 µM (inactive).

As for `Cc1c([N+](=O)[O-])c(C(=O)Nc2sc3c(c2C#N)CCC(C)C3)nn1C` (configuration not stated), the IC50 was > 100 µM (inactive).

As for `Cc1ccccc1CNC(=O)CN(Cc1ccccn1)Cc1ccccn1`, the IC50 is 100 µM.

Regarding `CC(Cn1ccnc1)NC(=O)C=Cc1ccc(Cl)cc1` (configuration not stated), the IC50 was 0.16 µM.

As for `COc1ccc2ncc(=O)n(CCN3CCOC(CNCc4ccc(C(F)(F)F)cc4F)C3)c2n1` (configuration not stated), the IC50 was 10 µM.

`Cc1ccc(Nc2nc(C3CCCN3Cc3ccn[nH]3)cs2)nc1` (configuration not stated): the IC50 is 6.3 µM.

Consider `Cc1ccc(Nc2nc(-c3ccccn3)cc(N3CCCC(O)C3)n2)cc1` (configuration not stated), for which the IC50 was 25 µM.

In the case of `CC(C)(C)C(=O)NCCc1csc(-c2ccc(F)cc2)n1`, the IC50 was 79 µM.

On to `COc1cccc(CCNC(=O)C(c2cn[nH]c2)N2CCN(c3ccc(Cl)cc3)CC2)c1` (configuration not stated), for which the IC50 was 0.063 µM.

On to `O=C(NCCc1csc(-c2ccc(F)cc2)n1)c1cccs1`, for which the IC50 is 25 µM.

For the compound `CNc1cc(C)nc(C2CN(C(=O)c3n[nH]c4ccccc34)CCO2)c1` (configuration not stated), the IC50 was > 100 µM (inactive).

Regarding `CS(=O)(=O)c1cccc(-c2cnc(N)c3c(-c4ccc(CO)cc4)csc23)c1`, the IC50 was 3.2 µM.

On to `Cn1ccnc1CN1CCc2[nH]cnc2C1c1ccccc1OCc1ccccc1` (configuration not stated), for which the half-inhibitory concentration (IC50) is 7.9 µM.

Consider `Clc1ccc(Sc2cnccc2N2CCOCC2)cc1`, for which the IC50 was 0.032 µM.

Consider `O=C(Nc1ccc(C(F)(F)F)cc1)NC1(C(=O)NCc2ccco2)CCCCC1`, for which the IC50 was > 32 µM (inactive).

On to `Cc1cc(NC(=O)CC2CCCCC2)n(-c2nc3c(c(=O)[nH]2)CCC3)n1`, for which the IC50 was > 100 µM (inactive).

With `CN(Cc1cccnc1)Cc1ccc(N2CCN(C(=O)C3(c4ccc(Cl)cc4)CC3)CC2)nc1`, the IC50 was 0.16 µM.

Consider `O=c1cc(NCCCNC2CCOc3c(I)cc(Cl)cc32)[nH]c2ccccc12` (configuration not stated), for which the IC50 is 16 µM.

Take `O=C(c1ccccc1)N1CCC(C(=O)N2CCC(Oc3ccccc3Cl)CC2)CC1`: the IC50 was 20 µM.

With `COc1ccc([N+](=O)[O-])cc1NC(=O)c1cc(Cl)ccc1O`, the IC50 was > 100 µM (inactive).

Consider `Cc1ccccc1NS(=O)(=O)c1ccc2[nH]cc(C(=O)NC3CCCC3)c(=O)c2c1`, for which the IC50 is 13 µM.

As for `Cc1sc(C)c(C(F)(F)F)c1CNCCCNc1cc(=O)c2ccccc2[nH]1`, the IC50 was 20 µM.

In the case of `O=c1[nH]cnc2c([C@@H]3O[C@H](CO)[C@@H](O)[C@H]3O)[nH]nc12`, the IC50 is > 100 µM (inactive).

For the compound `CC(C)(C)CC(=O)NCCc1csc(-c2ccc(F)cc2)n1`, the IC50 is 20 µM.

In the case of `CC(C)N(C(=O)CN1C(=O)C(N)C(=O)N(c2ccccc2)c2ccccc21)c1ccccc1` (configuration not stated), the half-inhibitory concentration (IC50) is 0.32 µM.

For `O=C(Cn1cnc2cc([N+](=O)[O-])ccc2c1=O)NCCc1ccc(Cl)cc1Cl`, the IC50 was > 100 µM (inactive).

For the compound `CNS(=O)(=O)c1ccccc1Nc1nc(Nc2ccnn2C)ncc1Cl`, the half-maximal inhibitory concentration (IC50) is 32 µM.

Regarding `CCS(=O)(=O)Nc1ccc(C2=NN(C(=O)c3cccs3)C(c3ccccc3OC)C2)cc1` (configuration not stated), the IC50 is 25 µM.

`CCN(Cc1nc2ccc(C(=O)N3CCN(c4ncccn4)CC3)cc2[nH]1)C1CCCc2cccnc21` (configuration not stated): the IC50 was 7.9 µM.

With `CCN(CC)c1ncc(C(=O)c2ccc([N+](=O)[O-])o2)s1`, the IC50 is 40 µM.

Regarding `COc1ccc(S(=O)(=O)NC(C)C)cc1Nc1ncc(-c2cccc(F)c2)cn1`, the IC50 was > 100 µM (inactive).

`Cc1ccc(-c2csc(NC(=O)C=Cc3ccc(S(=O)(=O)N4CCOCC4)cc3)n2)o1`: the IC50 is 20 µM.

On to `c1ccc(Nc2nc3ccccc3[nH]2)nc1`, for which the IC50 is > 100 µM (inactive).

In the case of `CC1CCCCN1C(=O)NCCc1coc(-c2ccc(F)cc2)n1` (configuration not stated), the IC50 is > 100 µM (inactive).

On to `CC(=O)Nc1ccc(CN2CCC(N3CC(c4ccccc4)(c4ccccc4)OCC3=O)CC2)cc1`, for which the IC50 was > 100 µM (inactive).

For `N#Cc1cccc(CN2CCC(N(Cc3cccnc3)C(=O)c3cc(F)c(F)cc3F)CC2)c1`, the IC50 was 0.05 µM.

Regarding `Cc1cc2nc(CN(C)Cc3ncccc3C)[nH]c2cc1C`, the IC50 is 79 µM.

As for `Cc1nc(-c2ccncc2)ncc1C(C)NC(=O)c1ccc(Cl)s1` (configuration not stated), the IC50 was 0.79 µM.

As for `CCOc1ccc(Nc2ccc(S(=O)(=O)N3CCN(C)CC3)cc2[N+](=O)[O-])cc1OCC`, the half-maximal inhibitory concentration (IC50) was 32 µM.

For the compound `Cc1cc(C)cc(NS(=O)(=O)c2cc(-c3cc(C)[nH]n3)ccc2C)c1`, the IC50 is 7.9 µM.

For `O=[N+]([O-])c1ccc(-c2nnn(-c3cccnc3)n2)o1`, the IC50 is 4 µM.

Consider `COc1ccc(C(=O)Nc2c(C)nn(COc3cccc(C(F)(F)F)c3)c2C)cc1`, for which the IC50 was 13 µM.

As to `CC(C)c1nn(-c2nc(N)nc(-c3ccccn3)n2)c(N)c1C1CCCCC1`, the IC50 is 3.2 µM.

Regarding `Cc1cc(NC(=O)C2CCCCC2)n(-c2nc3c(c(=O)[nH]2)CCC3)n1`, the IC50 was > 100 µM (inactive).

Regarding `COc1ccc(-c2csc(NC(=O)c3ccc([N+](=O)[O-])s3)n2)cc1`, the IC50 was > 100 µM (inactive).

With `CN(C)S(=O)(=O)c1ccc(Cl)c(C(=O)Nc2nc(-c3ccccn3)cs2)c1`, the IC50 was 32 µM.

`O=c1[nH]ccc2ccc(-c3ccncc3)cc12`: the half-maximal inhibitory concentration (IC50) is 0.016 µM.

In the case of `COc1ccc(C2=NCC(CSc3nnc(-c4ccc5c(c4)OCO5)o3)S2)cc1` (configuration not stated), the IC50 was 10 µM.

Regarding `COc1ccc(C(=O)Nc2cc(C(F)(F)F)ccc2N2CCOCC2)c(OC)c1`, the IC50 is > 100 µM (inactive).

Regarding `CCC(=O)Nc1ccccc1C(=O)Nc1ccccn1`, the IC50 was > 100 µM (inactive).

Consider `c1ccc(-c2nc(NC3CCCC3)c3ccccc3n2)nc1`, for which the IC50 was > 100 µM (inactive).

As to `Cn1nc(C(=O)N2CCc3ccccc32)c2c1CCS(=O)(=O)C2`, the IC50 is > 100 µM (inactive).

With `NS(=O)(=O)c1ccc(Nc2nccc(-c3cnn4ncccc34)n2)cc1`, the IC50 is > 100 µM (inactive).

In the case of `Cc1ccc(C)c(-n2nnnc2Sc2nc([N+](=O)[O-])nn2C)c1`, the IC50 is > 100 µM (inactive).

For `CCCCn1c(=O)c2c(N)onc2n(CCCC)c1=O`, the IC50 was 79 µM.

Take `COc1ccc(NS(=O)(=O)c2cccc(NC(=O)c3cc(F)cc(F)c3)c2)cc1`: the IC50 was > 100 µM (inactive).

For the compound `COc1cccc2sc(CN(C)C(=O)C3CNCCN3c3ccc(F)cc3)c(C)c12` (configuration not stated), the IC50 was 0.25 µM.

On to `COc1cccc(C(=O)[C@H]2C[C@@H]2CN(Cc2cccnc2)Cc2cccnc2)c1`, for which the IC50 was 0.063 µM.
